# From patent US9120749B2, “Quinoline derivatives and MELK inhibitors containing the same” (ONCOTHERAPY SCIENCE, INC., priority 2010, dated 2015)
# Experiments:
# T47D cells = assay: Cell-based assay: anti-proliferative activity, Cell Counting Kit-8, 72 hours (T47D); conditions: Homo sapiens, T47D, 72 h
# Method in brief: (§1)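 Proliferation read with Cell Counting Kit-8 after 72 hours of inhibitor treatment, from seeding of 2,000–3,000 cells/well. Lines: T47D, A549, BT-549; HT-1197, lacking MELK by western blot, served as negative control. IC50 derived.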
# MELK = MELK (Homo sapiens, UniProt Q14680); assay: Kinase assay: MELK activity, phosphorylation of FITC-labeled histone H3 peptide measured by IMAP fluorescence polarization; type: biochemical; conditions: read-out: IC50 (μM) (kinase assay)
# Method in brief: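 Fluorescence polarization was measured 0.5 h (room temperature) after quenching with threefold volume of progressive binding solution. Test compounds from 12.5 mM DMSO stocks were assayed at 1% DMSO.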
# DU4475 cells = assay: Cell-based assay: anti-proliferative activity, Cell Counting Kit-8, 72 hours (DU4475); conditions: Homo sapiens, DU-4475, 72 h
# A549 cells = assay: Cell-based assay: anti-proliferative activity, Cell Counting Kit-8, 72 hours (A549); conditions: Homo sapiens, A549, 72 h, 72 hours
# Method in brief: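 A549 cells were seeded in 96-well plates and exposed to candidate inhibitors for 72 hours. Cell growth was then measured with Cell Counting Kit-8, and IC50 values were calculated from the resulting growth data.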
# HT-1197 cells = assay: Cell-based assay: anti-proliferative activity, Cell Counting Kit-8, 72 hours (HT-1197, negative control without MELK expression); conditions: Homo sapiens, HT1197, 72 h, HT1197 cells (negative control, no MELK expression), 72 hours
# Method in brief: as §1
# Sequence of MELK (Q14680 whole entry, looked up): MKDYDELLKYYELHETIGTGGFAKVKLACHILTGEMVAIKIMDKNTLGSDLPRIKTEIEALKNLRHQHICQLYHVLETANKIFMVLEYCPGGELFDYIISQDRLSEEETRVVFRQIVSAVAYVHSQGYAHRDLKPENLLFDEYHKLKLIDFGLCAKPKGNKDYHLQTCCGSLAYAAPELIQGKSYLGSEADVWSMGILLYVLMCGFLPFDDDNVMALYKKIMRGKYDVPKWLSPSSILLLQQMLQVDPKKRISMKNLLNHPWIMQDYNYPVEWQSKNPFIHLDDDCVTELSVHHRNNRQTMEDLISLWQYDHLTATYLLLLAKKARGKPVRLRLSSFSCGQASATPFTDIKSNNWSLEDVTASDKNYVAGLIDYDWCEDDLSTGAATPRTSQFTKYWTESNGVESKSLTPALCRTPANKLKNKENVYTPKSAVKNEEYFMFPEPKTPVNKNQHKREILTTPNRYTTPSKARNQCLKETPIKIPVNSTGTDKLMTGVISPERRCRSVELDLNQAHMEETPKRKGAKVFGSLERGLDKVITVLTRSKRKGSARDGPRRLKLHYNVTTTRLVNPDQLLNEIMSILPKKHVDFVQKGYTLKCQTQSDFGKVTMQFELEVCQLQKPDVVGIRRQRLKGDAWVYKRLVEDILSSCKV
SMILES,IC50 (T47D cells) [µM],IC50 (MELK) [µM],IC50 (DU4475 cells) [µM],IC50 (A549 cells) [µM],IC50 (HT-1197 cells) [µM]
"NC1CCN(c2cc(Nc3c(C(=O)C4CC4)cnc4ccc(-c5cc(Cl)c(O)c(Cl)c5)cc34)ccn2)CC1 [Example 735, (4-(2-(4-aminopiperidin-1-yl)pyridin-4-ylamino)-6-(3,5-dichloro-4-hydroxyphenyl)quinolin-3-yl)(cyclopropyl)methanone]",1,0.0041,0.5,3.5,20
"COc1cc(-c2ccc3ncc(C(=O)C4CC4)c(Nc4ccc(OCCN)nc4)c3c2)cc(Cl)c1O [Example 722, (4-(6-(2-aminoethoxy)pyridin-3-ylamino)-6-(3-chloro-4-hydroxy-5-methoxyphenyl)quinolin-3-yl)(cyclopropyl)methanone]",0.19,0.0043,0.19,0.32,2.3
"CN1CCN(Cc2ccc(Nc3c(C(=O)C4CC4)cnc4ccc(-c5cc(F)c(O)c(Cl)c5)cc34)cn2)CC1 [Example 684, (6-(3-chloro-5-fluoro-4-hydroxyphenyl)-4-(6-((4-methylpiperazin-1-yl)methyl)pyridin-3-ylamino)quinolin-3-yl)(cyclopropyl)methanone]",0.88,0.05,0.82,1.5,15
COc1cc(-c2ccc3ncc(C(=O)C4CC4)c(N[C@H]4CC[C@H](CN5CCN(C)CC5)CC4)c3c2)cc(Cl)c1O [Example 637],0.68,0.0035,0.67,0.32,2.9
"O=C(c1cnc2ccc(-c3cc(F)c(O)c(Cl)c3)cc2c1N[C@H]1CC[C@H](CN2CCC(O)C2)CC1)C1CC1 (stereo partly drawn) [Example 631, (6-(3-chloro-5-fluoro-4-hydroxyphenyl)-4-((trans-4-((3-hydroxypyrrolidin-1-yl)methyl)cyclohexyl)amino)quinolin-3-yl)(cyclopropyl)methanone]",0.074,0.0021,0.055,0.17,0.85
"CN1CCCC(n2cc(Nc3c(C(=O)C4CC4)cnc4ccc(-c5cc(F)c(O)c(Cl)c5)cc34)cn2)C1 (stereo not drawn) [Example 699, {6-(3-Chloro-5-fluoro-4-hydroxyphenyl)-4-[1-(1-methylpiperidin-3-yl)-1H-pyrazol-4-ylamino]quinolin-3-yl}(cyclopropyl)methanone]",0.24,0.0026,0.072,0.18,2.7
"CN(C)C1CCN(c2ccc(Nc3c(C(=O)C4CC4)cnc4ccc(-c5cc(F)c(O)c(Cl)c5)cc34)cn2)C1 (stereo not drawn) [Example 691, (6-(3-chloro-5-fluoro-4-hydroxyphenyl)-4-(6-(3-(dimethylamino)pyrrolidin-1-yl)pyridin-3-ylamino)quinolin-3-yl)(cyclopropyl)methanone]",0.18,0.012,0.22,0.32,5.9
"COc1cc(-c2ccc3ncc(C(=O)C4CC4)c(Nc4ccc(NC5CCNC5)nc4)c3c2)cc(Cl)c1O (stereo not drawn) [Example 665, (6-(3-chloro-4-hydroxy-5-methoxyphenyl)-4-(6-(pyrrolidin-3-ylamino)pyridin-3-ylamino)quinolin-3-yl)(cyclopropyl)methanone]",0.16,0.0033,0.22,0.53,3.7
"CCC(=O)c1cnc2ccc(-c3cc(F)c(O)c(Cl)c3)cc2c1Nc1ccc(N2CCN(C)CC2)nc1 [Example 736, 1-(6-(3-chloro-5-fluoro-4-hydroxyphenyl)-4-(6-(4-methylpiperazin-1-yl)pyridin-3-ylamino)quinolin-3-yl)propan-1-one]",0.14,0.036,0.19,0.22,10
"CC(=O)c1cnc2ccc(-c3cc(Cl)c(O)c(Cl)c3)cc2c1Nc1ccc(CCN(C)C)cc1 [Example 744, 1-(6-(3,5-dichloro-4-hydroxyphenyl)-4-(4-(2-(dimethylamino)ethyl)phenylamino)quinolin-3-yl)ethanone]",0.11,0.0017,0.031,0.082,0.43
"COc1cc(-c2ccc3ncc(C(=O)C4CC4)c(Nc4ccc(N5CCC[C@H](N)C5)nc4)c3c2)cc(Cl)c1O [Example 660, (S)-(4-(6-(3-aminopiperidin-1-yl)pyridin-3-ylamino)-6-(3-chloro-4-hydroxy-5-methoxyphenyl)quinolin-3-yl)(cyclopropyl)methanone]",0.1,0.0024,0.046,0.22,2.9
"CN(C)C[C@]1(O)CC[C@@H](Nc2c(C(=O)C3CC3)cnc3ccc(-c4cc(F)c(O)c(Cl)c4)cc23)CC1 [Example 673, (6-(3-chloro-5-fluoro-4-hydroxyphenyl)-4-((cis-4-((dimethylamino)methyl)-4-hydroxycyclohexyl)amino)quinolin-3-yl)(cyclopropyl)methanone]",0.16,0.0042,0.089,0.16,1.4
COc1cc(-c2ccc3ncc(C(=O)C4CC4)c(Nc4ccc(N5CCC(N(C)C)C5)nc4)c3c2)cc(Cl)c1O (stereo not drawn) [Example 689],0.28,0.013,3.2,1.5,9.4
"COc1cc(-c2ccc3ncc(C(C)=O)c(Nc4ccc(CCN(C)C)cc4)c3c2)cc(Cl)c1O [Example 743, 1-(6-(3-chloro-4-hydroxy-5-methoxyphenyl)-4-(4-(2-(dimethylamino)ethyl)phenylamino)quinolin-3-yl)ethanone]",0.66,0.0042,0.36,0.53,4.8
"NCCOc1ccc(Nc2c(C(=O)C3CC3)cnc3ccc(-c4cc(F)c(O)c(Cl)c4)cc23)cn1 [Example 724, (4-(6-(2-Aminoethoxy)pyridin-3-ylamino)-6-(3-chloro-5-fluoro-4-hydroxyphenyl)quinolin-3-yl)(cyclopropyl)methanone]",0.07,0.0055,0.035,0.23,2.8
"O=C(c1cnc2ccc(-c3cc(Cl)c(O)c(Cl)c3)cc2c1NC1CCC(N2CC[C@@H](F)C2)CC1)C1CC1 (stereo partly drawn) [Example 643, (R)-cyclopropyl(6-(3,5-dichloro-4-hydroxyphenyl)-4-(4-(3-fluoropyrrolidin-1-yl)cyclohexylamino)quinolin-3-yl)methanone]",0.37,0.004,0.14,0.34,2.4
"COc1cc(-c2ccc3ncc(C(=O)C4CC4)c(Nc4ccc(CN5CCC(N(C)C)C5)cc4)c3c2)cc(Cl)c1O (stereo not drawn) [Example 697, (6-(3-chloro-4-hydroxy-5-methoxyphenyl)-4-(4-((3-(dimethylamino)pyrrolidin-1-yl)methyl)phenylamino)quinolin-3-yl)(cyclopropyl)methanone]",0.81,0.0084,0.64,0.44,1.8
"CCC(=O)c1cnc2ccc(-c3cc(F)c(O)c(Cl)c3)cc2c1N[C@H]1CC[C@H](CN(C)C)CC1 [Example 714, 1-(6-(3-chloro-5-fluoro-4-hydroxyphenyl)-4-((trans-4-((dimethylamino)methyl)cyclohexyl)amino)quinolin-3-yl)propan-1-one]",0.054,0.004,0.067,0.11,0.55
